This note sets out measurements from US20210069295A1, “GALECTINS CONTROL MTOR IN RESPONSE TO ENDOMEMBRANE DAMAGE AND PROVIDE A MECHANISM AND TARGET FOR THE TREATMENT OF AUTOPHAGY-RELATED DISEASES” (STC. UNM, priority 2017, published 2021).

Peptide text beside a SMILES is read from it.

One experiment relates to mTOR, Raptor, RagA, p14. As to the kind of experiment: APEX2 proximity biotinylation with streptavidin enrichment and immunoblotting in HEK293T cells. To be noted: for mTOR, Raptor and RagA found in the proximity of the galectin: APEX2-galectin fusions. In kind it is cell-based. The method, then:
(A) Analysis of the puncta formation of galectins in response to GPN. HeLa cells overexpressing YFP-fused with the indicated galectins were treated with 100 μM GPN or without (Ctrl) in full medium for 1 h and galectin puncta were quantified by HC. […] White masks, algorithm defined cell boundaries (primary objects); green masks, computer-identified galectins puncta (target objects). Data, means±SEM, n≥3 independent experiments (500 primary objects counted per well; ≥5 wells/sample per each experiment); *p<0.05, **p<0.01, † p≥0.05, ANOVA. (B) Immunoprecipitation analysis of the interactions between galectins and mTOR or RagA GTPase. HEK293T cells overexpressing FLAG-tagged galectins were subjected to anti-FLAG immunoprecipitation followed by immunoblotting for endogenous mTOR or RagA. (C) Immunoprecipitation analysis of interactions between Gal8 and mTOR protein complexes in response to GPN treatment. THP-1 cells not treated or treated with 100 μM GPN in full medium for 1 h were subjected to immunoprecipitation with anti-Gal8 antibody, followed by immunoblotting for endogenous RagA, p14, mTOR or Raptor. (D) Analysis of the proximity of Gal8 to mTOR and other proteins in mTOR complexes in response to GPN. Biotinylated proteins from HEK293T cell expressing APEX2-vector or APEX2-Gal8, after GPN and biotin phenol (BP) treatment were affinity-enriched by binding to streptavidin-beads, and samples were analyzed by immunoblotting analysis for endogenous RagA, p14, mTOR or Raptor. Data, means±SEM, (n=3), **p<0.01, ANOVA. (E) Immunoprecipitation analysis of the interactions between Gal8 and RagA GTPase and its mutants. Lysates of HEK293T cells overexpressing FLAG-Gal8 and HA-tagged RagA proteins (RagAWT, RagAT21L or RagAQ66L) were subjected to anti-FLAG immunoprecipitation, followed by immunoblotting for HA-tagged RagA proteins. (F) Immunoprecipitation analysis of the interactions between Gal8 and RagC GTPase and its mutants. HEK293T cells overexpressing FLAG-Gal8 and HA-tagged RagC proteins (RagCWT, RagCS75L or RagCQ120L) lysates were subjected to anti-FLAG immunoprecipitation, followed by immunoblotting for HA-tagged RagC proteins.
HEK293T cells transfected with pJJiaDEST-APEX2 or pJJiaDEST-APEX2-Gal8 were incubated with 100 μM GPN (Cayman Chemicals) in full medium for 1 h (confluence of cells remained at 70-80%). Cells were next incubated in 500 μM biotin-phenol (AdipoGen) in full medium for the last 30 min of GPN incubation. A 1 min pulse with 1 mM H2O2 at room temperature was stopped with quenching buffer (10 mM sodium ascorbate, 10 mM sodium azide and 5 mM Trolox in Dulbecco's Phosphate Buffered Saline (DPBS)). All samples were washed twice with quenching buffer, and twice with DPBS.
For immunoblotting analysis, cell pellets were lysed with 500 μL ice-cold RIPA lysis buffer (ThermoFisher Scientific) with protease inhibitor cocktail (Roche), 1 mM PMSF (sigma), 10 mM sodium ascorbate, 10 mM sodium azide and 5 mM Trolox, gently pipetted and then the incubated for 30 min. The lysates were clarified by centrifugation at 13,000 rpm for 5 min, followed by measuring protein concentrations using a Pierce BCA Protein Assay kit, with freshly made bovine serum albumin (BSA) solutions as standards. Streptavidin-coated magnetic beads (ThermoFisher Scientific) were washed with RIPA lysis buffer. 3 mg of each sample was mixed with 100 μL of streptavidin beads. […] 15 μL of each sample was separated by SDS-PAGE and analyzed by Western blot using indicated antibodies.

In experiment [1] the test system is LAMTOR1/p18 and Rag GTPases. As to the kind of experiment: GST-pulldown assay with in vitro translated proteins. As to conditions: 35S-methionine labeled. Format: binding. The method, then:
(D) Immunoprecipitation analysis of interactions between Gal8 and Ragulator components p14, p18 and MP1. HEK293T cells overexpressing FLAG-tagged Gal8 were immunoprecipitated/collected with anti-FLAG (beads). Cell lysates and collected immune complexes were blotted for endogenous p18, p14, and MP1. (E)(i-ii) GST pulldown assay with in vitro translated Myc-tagged Gal8 or Gal9 and GST-tagged p18. GST-tagged p18 immobilized on Gluthatione sepharose beads were incubated with in vitro translated Myc-tagged Gal8 or Gal9 radiolabeled with 35S-methionine. Interactions were assessed by autoradiography. Data (% binding), means±SEM, n=3, † p≥0.05, **p<0.01, ANOVA. (F)(i-iv) GST pulldown assay with in vitro translated Myc-tagged Rag proteins and GST-tagged Gal8. […] Interactions were assessed by autoradiography. […]
GST and GST-tagged proteins were produced in SoluBL21 Competent E. coli (Genlantis, C700200) and purified by binding to Glutathionine Sepharose 4 Fast Flow beads (GE Healthcare, 17-5132-01) while myc-tagged proteins were in vitro translated using the TNT T7 Reticulocyte Lysate System (Promega, 14610) in the presence of ^35S-methionine. […] Radioactive signals were detected by Fujifilm bioimaging analyzer BAS-5000 and quantified with ScienceLab ImageGuage software (Fujifilm).

Another experiment has as its system AMPKα. The experiment in a line: Co-IP of FLAG-tagged galectins with endogenous AMPKα in HEK293T cells. In kind it is binding. To be noted: HEK293T overexpressing FLAG-tagged galectins.

For the molecule “Gal9: beta-galactoside-binding lectin protein of the galectin family”, in the experiment on mTOR, Raptor, RagA, p14, the “mTOR, Raptor and RagA found in the proximity of the galectin” value is “not in the proximity”. Moreover, in experiment [1], the “direct binding to Ragulator (LAMTOR1/p18) and Rag GTPases in GST-pulldown” value is “did not show direct binding”. In addition, the “AMPKα in complexes (co-IP) with galectin” value with AMPKα is “found in co-IPs”.
On to “Gal8: protein of the galectin family encoded by the gene LGALS8; beta-galactoside-binding lectin”, for which the “mTOR, Raptor and RagA found in the proximity of the galectin” value in the experiment on mTOR, Raptor, RagA, p14 is reported as “in the proximity”. For the same molecule, the “direct binding to Ragulator (LAMTOR1/p18) and Rag GTPases in GST-pulldown” value in experiment [1] is “direct interactions”. The “AMPKα in complexes (co-IP) with galectin” value in the experiment on AMPKα is reported as “not detected”.
As for `NCC(=O)N[C@@H](Cc1ccccc1)C(=O)Nc1ccc2ccccc2c1` [GPN, glycyl-L-phenylalanine 2-naphththylamide] (HELM PEPTIDE1{G.F.[c1ccc2cc(N[*:1])ccc2c1]}$$$$V2.0), in the experiment with mTOR, Raptor, RagA, p14 (APEX2-Gal8 HEK293T, GPN), the “proximity of Gal8 to Ragulator (LAMTOR2/p14) and RagA” value is listed as “increased proximity”; the “proximity of Gal8 to mTOR and Raptor” value is “decreased proximity”.
